Measured values reported in article PMC6918269, “Caucasian Gentiana Species: Untargeted LC-MS Metabolic Profiling, Antioxidant and Digestive Enzyme Inhibiting Activity of Six Plants” (Metabolites, 2019).
Values after ≈ are worked out from the molar mass of the structure shown. Like-named read-outs stand apart in the source and are kept apart here. Marks after values point to notes of the source that are not given here.

Experiments:
[1] = lipid peroxidation inhibition assay; type: biochemical; settings: for LPA, lipid peroxidation inhibition activity: (caffeic acid IC50/sample IC50) × 1000, average ± S.D., text prints mg caffeic acid/g
Excerpt: The previously described method was used to investigate the lipid peroxidation inhibition potency. […] The IC50 value was found as the effective sample concentration gave 50% reduction of optical density of initial solution. The value of lipid peroxidation inhibition (I) was found as a ratio of caffeic acid IC50 to sample IC50 [I = (IC50^Caffeic acid/ IC50^Sample) × 1000] and expressed as mg of caffeic acid in 1 g of sample. Values are expressed as mean obtained from five independent experiments.

[2] = superoxide anion radical scavenging assay; type: biochemical; settings: for O2^-, superoxide anion-radical scavenging activity: (quercetin IC50/sample IC50) × 1000, average ± S.D., text prints mg quercetin/g
Excerpt: The known assay was used to determine superoxide anion radical scavenging activity. […] The IC50 value was found as the effective concentration at which superoxide anion radicals were scavenged by 50%. The value of antioxidant activity (A^O2•) against superoxide anion radicals was found as a ratio of quercetin IC50 to sample IC50 [A^O2• = (IC50^Quercetin/ IC50^Sample) × 1000] and expressed as mg of quercetin in 1 g of sample. Values are expressed as mean obtained from five independent experiments.

[3] = molecular target: T1, α-amylase from Aspergillus oryzae (Aspergillus oryzae, UniProt P0C1B3); assay: α-amylase inhibiting potential, spectrophotometric assay; type: biochemical; settings: (acarbose IC50/sample IC50) × 1000, average ± S.D., text prints mg acarbose/g
T1 construct: purchased Sigma-Aldrich 10065
Procedure: (§1) The α-amylase inhibiting potential and α-glucosidase inhibiting potential were performed using spectrophotometric assays. The α-amylase from Aspergillus oryzae (3 U/mL) and α-glucosidase from Saccharomyces cerevisae (0.5 U/mL) were used as […]. […] Values are expressed as mean obtained from six independent experiments.

[4] = DPPH radical scavenging assay; type: biochemical; settings: for DPPH, 2,2-diphenyl-1-picrylhydrazyl radical scavenging activity: (trolox IC50/sample IC50) × 1000, average ± S.D., text prints mg trolox/g
Procedure: The 2,2-diphenyl-1-picrylhydrazyl (DPPH) radical scavenging activity was performed as described earlier. […] The IC50 value was found as the effective concentration at which DPPH radicals were scavenged by 50%. The value of antioxidant activity (A^DPPH) against DPPH radicals was found as a ratio of trolox IC50 to sample IC50 [A^DPPH = (IC50^Trolox/ IC50^Sample) × 1000] and expressed as mg of trolox in 1 g of sample. Values are expressed as mean obtained from five independent experiments.

[5] = HPLC-DAD assay coupled with pre-chromatographic reaction with DPPH radicals; type: biochemical; settings: peak in G. asclepiadea herb extract, HPLC-DAD 210 nm
Procedure: Scavenging activity against DPPH radicals of gentian herb extracts were medium to high and varied from 147.57 mg trolox/g for G. paradoxa to 580.71 mg trolox/g for G. asclepiadea (Table 3). Extracts of gentian roots were characterized by mostly low activity, with activity values <10 mg trolox/g. […] Figure 9a,b show chromatograms of G. asclepiadea herb extract before and after reaction with DPPH radical. […]. Additional phenolic groups such as 2,3-dihydroxybenzoyl in iridoid structures of gelidoside (rindoside) and trifloroside can increase the radical scavenging potential, but not much (20.82–25.14 mg trolox/g).
Figure 9 HPLC-DAD chromatograms (210 nm) of G. asclepiadea herb extract before (a) and after (b) pre-chromatographic reaction with DPPH radicals and G. gelida roots extract before (c) and after (d) pre-chromatographic reaction with DPPH radicals. Zone of compounds numbered as follows: i—loganic acid; ii—swertiamarin; iii—isoorientin-2″-O-glucoside; iv—gentiopicroside; v—mangiferin; vi—isovitexin-2″-O-glucoside; vii—isoorientin; viii—saponarin; ix—isovitexin; x—luteolin-7-O-glucoside; xi—apigenin-7-O-glucoside; xii—gentiopicroside-6″-O-glucoside; xiii—gelidoside (rindoside); xiv—trifloroside. […] TEXT PRINTED IN THE PICTURE: (b) i: 3% | (b) iii: 72% | (b) iv: 5% | (b) v: 98% | (b) vii: 85% | (b) xi: 11% | (d) iv: 5% | (d) xiii: 8% | (d) xiv: 5% DOUBTS OF THE COPYIST ABOUT THIS PICTURE: The picture prints no measure with the percentages; only the bare % values are copied. / Panel d, 8% (arrow): taken as peak xiii, with 5% taken as xiv; peaks xiii and xiv lie close together, so the assignment is not fully certain. / Panel b, 98% (arrow): taken as peak v, which lies on the shoulder of iv. / The percentages are printed under traces (b) and (d) but compare (a) with (b) and (c) with (d), so the panel choice is uncertain.

[6] = molecular target: T2, α-glucosidase from Saccharomyces cerevisiae (Saccharomyces cerevisiae, UniProt P53341); assay: α-glucosidase inhibiting potential, spectrophotometric assay; type: biochemical; settings: (acarbose IC50/sample IC50) × 1000; average ± S.D.; text prints mg acarbose/g
T2 construct: purchased Sigma-Aldrich G5003
T2 sequence (P53341 whole entry): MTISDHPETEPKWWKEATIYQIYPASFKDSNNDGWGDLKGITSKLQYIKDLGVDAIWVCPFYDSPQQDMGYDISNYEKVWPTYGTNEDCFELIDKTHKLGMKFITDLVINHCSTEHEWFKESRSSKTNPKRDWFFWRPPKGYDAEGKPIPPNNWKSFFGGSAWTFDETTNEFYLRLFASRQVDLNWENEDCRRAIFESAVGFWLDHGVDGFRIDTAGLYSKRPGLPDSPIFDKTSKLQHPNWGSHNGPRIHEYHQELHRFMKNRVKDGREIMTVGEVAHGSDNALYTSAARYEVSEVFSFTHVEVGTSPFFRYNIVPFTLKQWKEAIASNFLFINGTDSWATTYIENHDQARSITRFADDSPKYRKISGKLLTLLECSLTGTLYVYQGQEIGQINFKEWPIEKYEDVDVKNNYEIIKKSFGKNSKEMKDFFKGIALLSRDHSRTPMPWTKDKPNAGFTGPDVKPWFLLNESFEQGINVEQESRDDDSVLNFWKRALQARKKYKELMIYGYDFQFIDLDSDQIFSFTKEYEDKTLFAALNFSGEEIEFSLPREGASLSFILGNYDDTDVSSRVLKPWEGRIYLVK
Procedure: as §1

[7] = cited from earlier work
[8] = set-up: method as in doi:10.1016/j.indcrop.2015.04.013; settings: cited from earlier work
[9] = set-up: method as in doi:10.1016/j.indcrop.2015.04.013; settings: G. cruciata (Serbia) study; cited from earlier work

Row | SMILES | O2^-, superoxide anion-radical scavenging activity [2] | αAIP, α-amylase inhibitory potential [3] | DPPH, 2,2-diphenyl-1-picrylhydrazyl radical scavenging activity [4] | percentage of peak area reduction after pre-chromatographic reaction with DPPH radicals [5] | αGIP, α-glycosidase inhibitory potential [6] | LPA, lipid peroxidation inhibition activity [1] | further results
1 | O=C(O)/C=C/c1ccc(O)c(O)c1 [Caffeic acid, caffeic acid, reference compound] | – | – | – | – | – | – | IC50, lipid peroxidation inhibition ([1]; positive control): 58.96 ± 1.14 µg/mL (≈ 327 µM)
2 | C=C[C@@H]1C2=CCOC(=O)C2=CO[C@H]1O[C@@H]1O[C@H](CO)[C@@H](O)[C@H](O)[C@H]1O [Gentiopicroside] | < 10.00 mg of quercetin per g of dry extract weight | < 10.00 mg of acarbose per g of dry extract weight | < 10.00 mg of trolox per g of dry extract weight | 3–5% | < 10.00 mg of acarbose per g of dry extract weight | < 10.00 mg of caffeic acid per g of dry extract weight | DPPH, 2,2-diphenyl-1-picrylhydrazyl radical scavenging activity ([4]; listed as gentiopicroside): < 10 mg of trolox per g of dry extr
3 | O=c1cc(-c2ccc(O)c(O)c2)oc2cc(O)c([C@@H]3O[C@H](CO)[C@@H](O)[C@H](O)[C@H]3O)c(O)c12 [Isoorientin, Luteolin-6-C-Glc (isoorientin)] | – | 1242.03 ± 44.71 ^xxviii mg of acarbose per g of dry extract weight | – | 72–98% | 811.10 ± 32.44 ^xxxvi mg of acarbose per g of dry extract weight | – | –
4 | O=c1cc(-c2ccc(O)cc2)oc2cc(O)c([C@@H]3O[C@H](CO)[C@@H](O)[C@H](O)[C@H]3O)c(O)c12 [Isovitexin] | 211.63 ± 4.20 ^xii mg of quercetin per g of dry extract weight | 108.35 ± 3.79 ^xxii mg of acarbose per g of dry extract weight | 425.11 ± 8.50 ^v mg of trolox per g of dry extract weight | – | – | 96.54 ± 3.73 ^xvii mg of caffeic acid per g of dry extract weight | αAIP, α-amylase inhibitory potential ([3]; listed as isovitexin): medium
5 | C[C@@H]1[C@H]2[C@H](O[C@@H]3O[C@H](CO)[C@@H](O)[C@H](O)[C@H]3O)OC=C(C(=O)O)[C@H]2C[C@@H]1O [Loganic Acid, Loganic acid] | < 10.00 mg of quercetin per g of dry extract weight | < 10.00 mg of acarbose per g of dry extract weight | < 10.00 mg of trolox per g of dry extract weight | 3–5% | < 10.00 mg of acarbose per g of dry extract weight | < 10.00 mg of caffeic acid per g of dry extract weight | DPPH, 2,2-diphenyl-1-picrylhydrazyl radical scavenging activity ([4]; listed as loganic acid): < 10 mg of trolox per g of dry extr
6 | O=c1c2cc(O)c(O)cc2oc2cc(O)c([C@@H]3O[C@H](CO)[C@@H](O)[C@H](O)[C@H]3O)c(O)c12 [Mangiferin] | 927.07 ± 18.54 ^xiv mg of quercetin per g of dry extract weight | 296.14 ± 10.36 ^xxiv mg of acarbose per g of dry extract weight | 3824.20 ± 76.48 ^viii mg of trolox per g of dry extract weight | 72–98% | 1562.84 ± 62.48 ^xxxvii mg of acarbose per g of dry extract weight | 522.14 ± 20.85 ^xx mg of caffeic acid per g of dry extract weight | O2^-, superoxide anion-radical scavenging activity ([2]; listed as mangiferin): 927.07 mg of quercetin per g of dry e; DPPH, 2,2-diphenyl-1-picrylhydrazyl radical scavenging activity ([4]; listed as mangiferin): 3824.20 mg of trolox per g of dry extr; LPA, lipid peroxidation inhibition activity ([1]; listed as mangiferin): 522.14 mg of caffeic acid per g of dr
7 | O=c1c(O)c(-c2ccc(O)c(O)c2)oc2cc(O)cc(O)c12 [Quercetin, quercetin, reference compound] | – | – | – | – | – | – | IC50, superoxide anion radicals scavenged by 50% ([2]; positive control): 21.74 ± 0.42 µg/mL (≈ 71.9 µM)
8 | O=C1O[C@H]([C@@H](O)CO)C(O)=C1O [ascorbic acid] | – | – | – | – | – | – | IC50 in the DPPH assay ([7]; Serbian species G. asclepiadea study): 5.23 µg/mL (≈ 29.7 µM); IC50 in the DPPH assay ([7]; Serbian species G. cruciata study): 6.05 µg/mL (≈ 34.4 µM)
9 | Cc1cc(C(C)(C)C)c(O)c(C(C)(C)C)c1 [butylated hydroxytoluene] | – | – | – | – | – | – | IC50, inhibitory activity toward lipid peroxidation [8]: 1.00 µg/mL (≈ 4.54 µM)
10 | O=C(O)c1cc(O)c(O)c(O)c1 [gallic acid] | – | – | – | – | – | – | superoxide scavenging potential (IC50) [9]: 360 µg/mL
11 | O=c1cc(-c2ccc(O)c(O)c2)oc2cc(O)c([C@@H]3O[C@H](CO)[C@@H](O)[C@H](O)[C@H]3O[C@@H]3O[C@H](CO)[C@@H](O)[C@H](O)[C@H]3O)c(O)c12 [isoorientin-2″-O-glucoside, Isoorientin-2″-O-Glc] | – | – | – | 72–98% | – | – | –
12 | Cc1c(C)c2c(c(C)c1O)CCC(C)(C(=O)O)O2 (stereo not drawn) [trolox, reference compound] | – | – | – | – | – | – | IC50, DPPH radicals scavenged by 50% ([4]; positive control): 11.62 ± 0.23 µg/mL (≈ 46.4 µM)
